Source: patent US12252524B2, “GIP/GLP1 co-agonist compounds” (Eli Lilly and Company, priority 2018, dated 2025)
Like-named read-outs stand apart in the source and are kept apart here. Numbered stars: 1 amine (or outer) side, 2 acyl side, 3 side chain; on linkers, the order of the positions; unused ones are H or OH. Square brackets hold non-standard residues; d marks the D form. Side chains are listed from the residue outwards. Peptide text beside a SMILES is read from it. * marks the point of attachment. C20 diacid = O=C(O)CCCCCCCCCCCCCCCCCCC(=O)*; C18 diacid = O=C(O)CCCCCCCCCCCCCCCCC(=O)*; αMePhe(2-F) = C[C@](N)(Cc1ccccc1F)C(=O)O; γGlu = O=C(O)[C@H](CCC(=O)[*:2])N[*:1]; αMeL = CC(C)C[C@](C)(N)C(=O)O; Orn = NCCC[C@H](N)C(=O)O; AEEA = NCCOCCOCC(=O)O; Aib = CC(C)(N)C(=O)O

Key:
human GIP receptor = target: T1, human GIP receptor (Homo sapiens, UniProt P48546); experiment: [125I]-GIP binding (SPA), human GIP receptor
T1 construct: expressed in transfected cells; crude membranes
T1 sequence (P48546 22-466): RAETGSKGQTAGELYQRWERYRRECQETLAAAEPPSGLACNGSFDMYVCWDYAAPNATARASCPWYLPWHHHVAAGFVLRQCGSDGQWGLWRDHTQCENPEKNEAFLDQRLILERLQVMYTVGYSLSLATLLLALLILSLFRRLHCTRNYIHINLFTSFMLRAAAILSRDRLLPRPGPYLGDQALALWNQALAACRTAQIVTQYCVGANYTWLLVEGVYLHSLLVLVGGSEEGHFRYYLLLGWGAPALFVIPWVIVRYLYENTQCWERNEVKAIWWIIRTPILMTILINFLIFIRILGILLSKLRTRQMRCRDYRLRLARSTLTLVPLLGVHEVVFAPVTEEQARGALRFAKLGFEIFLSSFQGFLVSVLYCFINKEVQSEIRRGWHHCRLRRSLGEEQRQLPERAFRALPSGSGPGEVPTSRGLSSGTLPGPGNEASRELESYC

[1] = target: T2, gastric inhibitory peptide receptor (GIPR) (Homo sapiens, UniProt P48546); experiment: cAMP pharmacological functional assay in presence of casein, hGIPR; assay type: cell-based
T2 sequence (P48546 22-466): T1 sequence (P48546 22-466)

human GLP-1R [2] = target: T3, human GLP-1R (Homo sapiens, UniProt P43220); experiment: [125I]-GLP-1 binding (SPA), human GLP-1 receptor; parameters: expressed in transfected cells; crude membranes
T3 sequence (P43220 24-463): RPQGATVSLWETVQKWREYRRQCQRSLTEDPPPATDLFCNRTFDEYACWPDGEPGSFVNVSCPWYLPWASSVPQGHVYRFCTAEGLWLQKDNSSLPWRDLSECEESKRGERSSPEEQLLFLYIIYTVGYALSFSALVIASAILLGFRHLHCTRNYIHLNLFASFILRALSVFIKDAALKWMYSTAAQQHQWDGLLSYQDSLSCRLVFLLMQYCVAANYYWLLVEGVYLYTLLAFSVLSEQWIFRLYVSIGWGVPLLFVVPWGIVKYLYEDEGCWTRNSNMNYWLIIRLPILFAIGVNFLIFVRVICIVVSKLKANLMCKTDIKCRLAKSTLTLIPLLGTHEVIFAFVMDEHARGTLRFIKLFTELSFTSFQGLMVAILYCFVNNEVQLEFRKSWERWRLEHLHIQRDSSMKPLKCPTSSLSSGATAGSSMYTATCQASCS
Method in brief: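 Assay buffer: HEPES 25 mM, pH 7.4, CaCl2 2.5 mM, MgCl2 1 mM, with EDTA-free protease inhibitors. Receptor came from crude cell membranes prepared by homogenization and centrifugation at 4° C. IC50s came from four-parameter fits (maximum, minimum, IC50, Hill slope) and were expressed as Ki geometric means with SEM.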

human GLP-1R [3] = target: T3, human GLP-1R; experiment: GLP-1R CHO cell β-arrestin recruitment assay; assay type: cell-based; parameters: host or cells: CHO-K1 PathHunter cells, assay-ready frozen; details: for hGLP1R B-Arrestin2 % Top: normalized to GLP-1 maximum control
Method in brief: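 Peptide-induced β-arrestin-2 recruitment measured by enzyme-fragment complementation luminescence after 90 min at 37 °C plus 60 min detection at RT.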

human GLP-1R [4] = target: T3, human GLP-1R; experiment: GLP-1R HEK293 cell membrane [35S]GTPγS binding assay; assay type: biochemical; parameters: expressed in transfected cells; host or cells: HEK293 cells expressing human GLP-1R; membranes
Method in brief: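 Agonist-driven Gαs activation read as [35S]GTPγS ([…]) binding to receptor-expressing HEK293 membranes, 30 min at room temperature, pH 7.4. Detection by anti-Gαs immunocapture on scintillation beads; EC50 derived from four-parameter logistic concentration-response fit.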

Row | SMILES | Ki (human GIP receptor) [nM] | EC50 [1] [nM] | Ki (human GLP-1R [2]) [nM] | EC50 (human GLP-1R [3]) [µM] | hGLP1R B-Arrestin2 % Top (human GLP-1R [3]) [%] | EC50 (human GLP-1R [4]) [nM] | Ki (human GIP receptor; read-out: hGIPR Ki, nM (SEM, n)) [nM] | EC50 ([1]; HEK293 cells expressing hGIPR, 0.1% Casein, geometric mean, read-out: hGIPR cAMP Rel EC50 nM (SEM, n)) [nM] | Ki (human GLP-1R [2]; read-out: hGLP1R Ki, (nM) (SEM, n)) | EC50 (human GLP-1R [3]; CHO-K1 cells, PathHunter β-arrestin-2 recruitment, 0.1% casein, read-out: hGLP1R B-Arrestin2 Rel EC50 uM (SEM, n)) [µM] | EC50 (human GLP-1R [4]; HEK293 cell membranes expressing human GLP-1R, [35S]GTPγS binding, read-out: hGLP1R GTPgS Rel EC50 nM (SEM, n)) [nM]
1 | CC[C@H](C)[C@H](NC(=O)[C@H](CC(C)C)NC(=O)[C@H](Cc1ccc(O)cc1)NC(=O)[C@@H](CCC(=O)O)NC(=O)[C@@H](NC(=O)[C@H](Cc1ccccc1)NC(=O)[C@H](CCC(=O)O)NC(=O)C(C)(C)NC(=O)[C@H](CCC(N)=O)NC(=O)[C@H](C)NC(=O)[C@H](CCCCNC(=O)COCCOCCNC(=O)COCCOCCNC(=O)CC[C@H](NC(=O)CCCCCCCCCCCCCCCCCCC(=O)O)C(=O)O)NC(=O)[C@H](CCC(=O)O)NC(=O)[C@H](CC(=O)O)NC(=O)[C@H](CC(C)C)NC(=O)[C@](C)(CC(C)C)NC(=O)[C@@H](NC(=O)[C@H](CO)NC(=O)[C@H](Cc1ccc(O)cc1)NC(=O)[C@H](CC(=O)O)NC(=O)[C@H](CO)NC(=O)[C@@H](NC(=O)[C@](C)(Cc1ccccc1F)NC(=O)[C@@H](NC(=O)CNC(=O)[C@H](CCC(=O)O)NC(=O)C(C)(C)NC(=O)[C@@H](N)Cc1ccc(O)cc1)[C@@H](C)O)[C@@H](C)O)[C@@H](C)CC)[C@@H](C)CC)C(=O)N[C@@H](CCC(=O)O)C(=O)NCC(=O)NCC(=O)N1CCC[C@H]1C(=O)N[C@@H](CO)C(=O)N[C@@H](CO)C(=O)NCC(=O)N[C@@H](C)C(=O)N1CCC[C@H]1C(=O)N1CCC[C@H]1C(=O)N1CCC[C@H]1C(=O)N[C@@H](CO)C(N)=O [Example 1] (H-Y[Aib]EGT[αMePhe(2-F)]TSDYSI[αMeL]LDEK([AEEA-AEEA-γGlu-C20 diacid])AQ[Aib]EFI[dE]YLIEGGPSSGAPPPS-NH2) | 0.0546 | 0.0356 | 6.67 | 0.005 | 105 | 0.235 |  |  |  |  | 
2 | CC[C@H](C)[C@H](NC(=O)[C@H](CC(C)C)NC(=O)[C@H](Cc1ccc(O)cc1)NC(=O)[C@@H](CCC(=O)O)NC(=O)[C@@H](NC(=O)[C@H](Cc1ccccc1)NC(=O)[C@H](CCC(=O)O)NC(=O)C(C)(C)NC(=O)[C@H](CCC(N)=O)NC(=O)[C@H](C)NC(=O)[C@H](CCCCNC(=O)COCCOCCNC(=O)COCCOCCNC(=O)CC[C@H](NC(=O)CCCCCCCCCCCCCCCCC(=O)O)C(=O)O)NC(=O)[C@H](CCCN)NC(=O)[C@H](CC(=O)O)NC(=O)[C@H](CC(C)C)NC(=O)[C@](C)(CC(C)C)NC(=O)[C@@H](NC(=O)[C@H](CO)NC(=O)[C@H](Cc1ccc(O)cc1)NC(=O)[C@H](CC(=O)O)NC(=O)[C@H](CO)NC(=O)[C@@H](NC(=O)[C@](C)(Cc1ccccc1F)NC(=O)[C@@H](NC(=O)CNC(=O)[C@H](CCC(=O)O)NC(=O)C(C)(C)NC(=O)[C@@H](N)Cc1ccc(O)cc1)[C@@H](C)O)[C@@H](C)O)[C@@H](C)CC)[C@@H](C)CC)C(=O)N[C@@H](CCC(=O)O)C(=O)NCC(=O)NCC(=O)N1CCC[C@H]1C(=O)N[C@@H](CO)C(=O)N[C@@H](CO)C(=O)NCC(=O)N[C@@H](C)C(=O)N1CCC[C@H]1C(=O)N1CCC[C@H]1C(=O)N1CCC[C@H]1C(=O)N[C@@H](CO)C(N)=O [Example 2] (H-Y[Aib]EGT[αMePhe(2-F)]TSDYSI[αMeL]LD[Orn]K([AEEA-AEEA-γGlu-C18 diacid])AQ[Aib]EFI[dE]YLIEGGPSSGAPPPS-NH2; N-terminus assumed) | 0.06 | 0.0339 | 2.35 | 0.00882 | 96.1 | 0.642 |  |  |  |  | 
3 | CC[C@H](C)[C@H](NC(=O)[C@H](CC(C)C)NC(=O)[C@H](Cc1ccc(O)cc1)NC(=O)[C@@H](CCC(=O)O)NC(=O)[C@@H](NC(=O)[C@H](Cc1ccccc1)NC(=O)[C@H](CCC(=O)O)NC(=O)C(C)(C)NC(=O)[C@H](CCC(N)=O)NC(=O)[C@H](C)NC(=O)[C@H](CCCCNC(=O)COCCOCCNC(=O)COCCOCCNC(=O)CC[C@H](NC(=O)CCCCCCCCCCCCCCCCCCC(=O)O)C(=O)O)NC(=O)[C@H](CCCN)NC(=O)[C@H](CC(=O)O)NC(=O)[C@H](CC(C)C)NC(=O)[C@](C)(CC(C)C)NC(=O)[C@@H](NC(=O)[C@H](CO)NC(=O)[C@H](Cc1ccc(O)cc1)NC(=O)[C@H](CC(=O)O)NC(=O)[C@H](CO)NC(=O)[C@@H](NC(=O)[C@](C)(Cc1ccccc1F)NC(=O)[C@@H](NC(=O)CNC(=O)[C@H](CCC(=O)O)NC(=O)C(C)(C)NC(=O)[C@@H](N)Cc1ccc(O)cc1)[C@@H](C)O)[C@@H](C)O)[C@@H](C)CC)[C@@H](C)CC)C(=O)N[C@@H](CCC(=O)O)C(=O)NCC(=O)NCC(=O)N1CCC[C@H]1C(=O)N[C@@H](CO)C(=O)N[C@@H](CO)C(=O)NCC(=O)N[C@@H](C)C(=O)N1CCC[C@H]1C(=O)N1CCC[C@H]1C(=O)N1CCC[C@H]1C(=O)N[C@@H](CO)C(N)=O [Example 3] | 0.0458 | 0.0411 | 2.23 |  |  | 0.421 |  |  |  |  | 
4 | CC[C@H](C)[C@H](NC(=O)[C@H](CC(C)C)NC(=O)[C@](C)(Cc1ccc(O)cc1)NC(=O)[C@@H](CCC(=O)O)NC(=O)[C@@H](NC(=O)[C@H](Cc1ccccc1)NC(=O)[C@H](CCC(=O)O)NC(=O)C(C)(C)NC(=O)[C@H](CCC(N)=O)NC(=O)[C@H](C)NC(=O)[C@H](CCCCNC(=O)COCCOCCNC(=O)COCCOCCNC(=O)CC[C@H](NC(=O)CCCCCCCCCCCCCCCCC(=O)O)C(=O)O)NC(=O)[C@H](CCCN)NC(=O)[C@H](CC(=O)O)NC(=O)[C@H](CC(C)C)NC(=O)[C@](C)(CC(C)C)NC(=O)[C@@H](NC(=O)[C@H](CO)NC(=O)[C@H](Cc1ccncc1)NC(=O)[C@H](CC(=O)O)NC(=O)[C@H](CO)NC(=O)[C@@H](NC(=O)[C@](C)(Cc1ccccc1F)NC(=O)[C@@H](NC(=O)CNC(=O)[C@H](CCC(=O)O)NC(=O)C(C)(C)NC(=O)[C@@H](N)Cc1ccc(O)cc1)[C@@H](C)O)[C@@H](C)O)[C@@H](C)CC)[C@@H](C)CC)C(=O)N[C@@H](CCC(=O)O)C(=O)NCC(=O)NCC(=O)N1CCC[C@H]1C(=O)N[C@@H](CO)C(=O)N[C@@H](CO)C(=O)NCC(=O)N[C@@H](C)C(=O)N1CCC[C@H]1C(=O)N1CCC[C@H]1C(=O)N1CCC[C@H]1C(=O)N[C@@H](CO)C(N)=O [Example 4] | 0.0528 | 0.0272 | 1.63 | 0.0048 | 92.4 | 0.245 |  |  |  |  | 
5 | CC[C@H](C)[C@H](NC(=O)[C@H](CC(C)C)NC(=O)[C@H](Cc1ccc(O)cc1)NC(=O)[C@H](CCC(=O)O)NC(=O)[C@@H](NC(=O)[C@H](Cc1ccccc1)NC(=O)[C@H](C)NC(=O)C(C)(C)NC(=O)[C@H](CCC(N)=O)NC(=O)[C@H](C)NC(=O)[C@H](CCCCNC(=O)COCCOCCNC(=O)COCCOCCNC(=O)CC[C@H](NC(=O)CCCCCCCCCCCCCCCCCCC(=O)O)C(=O)O)NC(=O)[C@H](CCCCN)NC(=O)[C@H](CC(=O)O)NC(=O)[C@H](CC(C)C)NC(=O)[C@H](CC(C)C)NC(=O)[C@@H](NC(=O)[C@H](CO)NC(=O)[C@H](Cc1ccc(O)cc1)NC(=O)[C@H](CC(=O)O)NC(=O)[C@H](CO)NC(=O)[C@@H](NC(=O)[C@H](Cc1ccccc1)NC(=O)[C@@H](NC(=O)CNC(=O)[C@H](CCC(=O)O)NC(=O)C(C)(C)NC(=O)[C@@H](N)Cc1ccc(O)cc1)[C@@H](C)O)[C@@H](C)O)[C@@H](C)CC)[C@@H](C)CC)C(=O)N[C@@H](C)C(=O)NCC(=O)NCC(=O)N1CCC[C@H]1C(=O)N[C@@H](CO)C(=O)N[C@@H](CO)C(=O)NCC(=O)N[C@@H](C)C(=O)N1CCC[C@H]1C(=O)N1CCC[C@H]1C(=O)N1CCC[C@H]1C(=O)N[C@@H](CO)C(N)=O [Example 288] (H-Y[Aib]EGTFTSDYSILLDKK([AEEA-AEEA-γGlu-C20 diacid])AQ[Aib]AFIEYLIAGGPSSGAPPPS-NH2; N-terminus assumed) |  |  |  |  | 21.3 |  | 0.058 | 0.0732 | 1.6 | 0.00674 | 0.666
